Results reported in patent publication US6693108B2, “Inhibitors of c-JUN N terminal kinases (JNK) and other protein kinases” (Vertex Pharmaceuticals Incorporated, priority 1999, dated 2004).
pKi: −log10 of the molar value.

target: T1, activated JNK3 (Homo sapiens, UniProt P53779); assay: JNK3 inhibition, spectrophotometric coupled-enzyme assay; assay type: biochemical; conditions: read-out: Activity in the JNK3 Inhibition Assay (Ki rating)
T1 construct: One such construct encodes amino acid residues Ser40-Glu402 of JNK3α1 and is preceded by Met and Gly residues; Met-Gly (initiation Met plus Gly added to create the NcoI site) (N); made in house; host or cells: E. coli BL21 (DE3)
Text: A BLAST search of the EST database using the published JNK3α1 cDNA as a query identified an EST clone (#632588) that contained the entire coding sequence for human JNK3α1. Polymerase chain reactions (PCR) using pfu polymerase (Strategene) were used to introduce restriction sites into the cDNA for cloning into the pET-15B expression vector at the NcoI and BamHI sites. The protein was expressed in E. coli. […] This truncation corresponds to Ser 2 of JNK1 and JNK2 proteins, and is preceded by a methionine (initiation) and a glycine residue. The glycine residue was added in order to introduce an NcoI site for cloning into the expression vector. In addition, systematic C-terminal truncations were performed by PCR to identify a construct that give rise to diffraction-quality crystals.
5 mg of JNK3 was diluted to 0.5 mg/ml in 50 mM HEPES buffer, pH 7.5, containing 100 mM NaCl, 5 mM DTT, 20 mM MgCl2 and 1 mM ATP. GST-MKK7(DD) was added at a molar ratio of 1:2.5 GST-MKK7:JNK3. After incubation for 30 minutes at 25° C., the reaction mixture was concentrated 5-fold by ultrafiltration in a Centriprep-30 (Amicon, Beverly, Mass.), diluted to 10 ml and an additional 1 mM ATP added. This procedure was repeated three times to remove ADP and replenish ATP. The final addition of ATP was 5 mM and the mixture incubated overnight at 4° C.
The activated JNK3/GST-MKK7(DD) reaction mixture was exchanged into 50 mM HEPES buffer, pH 7.5, containing 5 mM DTT and 5% glycerol (w/v) by dialysis or ultrafiltration. The reaction mixture was adjusted to 1.1 M potassium phosphate, pH 7.5, and purified by hydrophobic interaction chromatography (at 25° C.) using a Rainin Hydropore column. […] Activated JNK3 (i.e. doubly phosphorylated JNK3) was stored at −70° C. at 0.25-1 mg/ml.
Compounds were assayed for the inhibition of JNK3 by a spectrophotometric coupled-enzyme assay. In this assay, a fixed concentration of activated JNK3 (10 nM) was incubated with various concentrations of a potential inhibitor dissolved in DMSO for 10 minutes at 30° C. in a buffer containing 0.1 M HEPES buffer, pH 7.5, containing 10 mM MgCl2, 2.5 mM phosphoenolpyruvate, 200 μM NADH, 150 μg/mL pyruvate kinase, 50 μg/mL lactate dehydrogenase, and 200 μM EGF receptor peptide. […] The reaction was initiated by the addition of 10 μM ATP and the assay plate is inserted into the spectrophotometer's assay plate compartment that was maintained at 30° C. The decrease of absorbance at 340 nm was monitored as a function of time. The rate data as a function of inhibitor concentration was fitted to competitive inhibition kinetic model to determine the Ki.

T1 sequence (P53779 40-402): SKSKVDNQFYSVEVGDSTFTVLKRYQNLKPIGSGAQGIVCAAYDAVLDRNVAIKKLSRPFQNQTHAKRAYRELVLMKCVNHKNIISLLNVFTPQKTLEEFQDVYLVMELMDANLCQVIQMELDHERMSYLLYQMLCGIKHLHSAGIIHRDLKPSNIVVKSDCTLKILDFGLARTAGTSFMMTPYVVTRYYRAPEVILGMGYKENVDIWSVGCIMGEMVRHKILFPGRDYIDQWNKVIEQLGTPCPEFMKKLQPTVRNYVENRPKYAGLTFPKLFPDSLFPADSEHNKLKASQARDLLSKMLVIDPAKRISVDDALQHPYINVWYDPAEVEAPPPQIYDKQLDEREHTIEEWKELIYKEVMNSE

pKi	SMILES
6.00 to 7.00	COc1cc(C(=O)Nc2nccc(-c3c(-c4ccccc4C)noc3C)n2)cc(OC)c1OC [IIIA-18]
6.00 to 7.00	COc1cccc(C(=O)Nc2nccc(-c3c(-c4ccccc4C)noc3C)n2)c1 [IIIA-19]
6.00 to 7.00	COc1ccc(C(=O)Nc2nccc(-c3c(-c4ccccc4C)noc3C)n2)cc1 [IIIA-20]
6.00 to 7.00	COc1cc(OC)cc(C(=O)Nc2nccc(-c3c(-c4ccccc4C)noc3C)n2)c1 [IIIA-21]
< 6.00	COc1cc(C(=O)Nc2nccc(-c3c(-c4ccccc4C(F)(F)F)noc3C)n2)cc(OC)c1OC [IIIA-22]
< 6.00	COc1cccc(C(=O)Nc2nccc(-c3c(-c4ccccc4C(F)(F)F)noc3C)n2)c1 [IIIA-23]
< 6.00	COc1ccc(C(=O)Nc2nccc(-c3c(-c4ccccc4C(F)(F)F)noc3C)n2)cc1 [IIIA-24]
< 6.00	COc1cc(OC)cc(C(=O)Nc2nccc(-c3c(-c4ccccc4C(F)(F)F)noc3C)n2)c1 [IIIA-25]
6.00 to 7.00	COc1cc(C(=O)Nc2nccc(-c3c(-c4cccc(OCc5ccccc5)c4)noc3C)n2)cc(OC)c1OC [IIIA-30]
6.00 to 7.00	COc1cccc(C(=O)Nc2nccc(-c3c(-c4cccc(OCc5ccccc5)c4)noc3C)n2)c1 [IIIA-31]
6.00 to 7.00	COc1ccc(C(=O)Nc2nccc(-c3c(-c4cccc(OCc5ccccc5)c4)noc3C)n2)cc1 [IIIA-32]
6.00 to 7.00	COc1cc(OC)cc(C(=O)Nc2nccc(-c3c(-c4cccc(OCc5ccccc5)c4)noc3C)n2)c1 [IIIA-33]
< 6.00	COc1cc(C(=O)Nc2nccc(-c3c(-c4cccc([N+](=O)[O-])c4)noc3C)n2)cc(OC)c1OC [IIIA-34]
< 6.00	COc1cccc(C(=O)Nc2nccc(-c3c(-c4cccc([N+](=O)[O-])c4)noc3C)n2)c1 [IIIA-35]
< 6.00	COc1ccc(C(=O)Nc2nccc(-c3c(-c4cccc([N+](=O)[O-])c4)noc3C)n2)cc1 [IIIA-36]
< 6.00	COc1cc(OC)cc(C(=O)Nc2nccc(-c3c(-c4cccc([N+](=O)[O-])c4)noc3C)n2)c1 [IIIA-37]
< 6.00	COc1cc(C(=O)Nc2nccc(-c3c(-c4cccc(C#N)c4)noc3C)n2)cc(OC)c1OC [IIIA-38]
< 6.00	COc1cccc(C(=O)Nc2nccc(-c3c(-c4cccc(C#N)c4)noc3C)n2)c1 [IIIA-39]
< 6.00	COc1ccc(C(=O)Nc2nccc(-c3c(-c4cccc(C#N)c4)noc3C)n2)cc1 [IIIA-40]
< 6.00	COc1cc(OC)cc(C(=O)Nc2nccc(-c3c(-c4cccc(C#N)c4)noc3C)n2)c1 [IIIA-41]
6.00 to 7.00	COc1cc(OC)cc(C(=O)Nc2nccc(-c3c(-c4ccccc4)noc3C)n2)c1 [IIIA-42]
> 7.00	Cc1onc(-c2ccccc2)c1-c1ccnc(NC(=O)c2cccc(C#N)c2)n1 [IIIA-43]
6.00 to 7.00	COC(=O)c1ccc(C(=O)Nc2nccc(-c3c(-c4ccccc4)noc3C)n2)cc1 [IIIA-44]

pKi	SMILES
6.00 to 7.00	Cc1onc(-c2cccc(F)c2)c1-c1ccnc(NC(=O)c2cccc(Cl)c2)n1 [IIIA-45]
6.00 to 7.00	COc1cccc(C(=O)Nc2nccc(-c3c(-c4cccc(F)c4)noc3C)n2)c1 [IIIA-46]
6.00 to 7.00	COc1cc(OC)cc(C(=O)Nc2nccc(-c3c(-c4cccc(F)c4)noc3C)n2)c1 [IIIA-47]
6.00 to 7.00	Cc1cccc(C(=O)Nc2nccc(-c3c(-c4cccc(F)c4)noc3C)n2)c1 [IIIA-48]
6.00 to 7.00	Cc1onc(-c2cccc(F)c2)c1-c1ccnc(NC(=O)c2ccc(F)cc2)n1 [IIIA-49]
6.00 to 7.00	Cc1ccc(C(=O)Nc2nccc(-c3c(-c4cccc(F)c4)noc3C)n2)cc1 [IIIA-50]
6.00 to 7.00	Cc1onc(-c2cccc(F)c2)c1-c1ccnc(NC(=O)c2cccc(C#N)c2)n1 [IIIA-51]
6.00 to 7.00	COc1cc(C(=O)Nc2nccc(-c3c(-c4cccc(F)c4)noc3C)n2)cc(OC)c1OC [IIIA-52]
6.00 to 7.00	Cc1onc(-c2cccc(F)c2)c1-c1ccnc(NC(=O)c2ccc3ccccc3c2)n1 [IIIA-53]
6.00 to 7.00	Cc1onc(-c2ccccc2F)c1-c1ccnc(NC(=O)c2cccc(Cl)c2)n1 [IIIA-54]
6.00 to 7.00	COc1cccc(C(=O)Nc2nccc(-c3c(-c4ccccc4F)noc3C)n2)c1 [IIIA-55]
6.00 to 7.00	COc1cc(OC)cc(C(=O)Nc2nccc(-c3c(-c4ccccc4F)noc3C)n2)c1 [IIIA-56]
6.00 to 7.00	Cc1cccc(C(=O)Nc2nccc(-c3c(-c4ccccc4F)noc3C)n2)c1 [IIIA-57]
6.00 to 7.00	COc1ccc(C(=O)Nc2nccc(-c3c(-c4ccccc4F)noc3C)n2)cc1 [IIIA-58]
6.00 to 7.00	Cc1onc(-c2ccccc2F)c1-c1ccnc(NC(=O)c2ccc(F)cc2)n1 [IIIA-59]
6.00 to 7.00	Cc1ccc(C(=O)Nc2nccc(-c3c(-c4ccccc4F)noc3C)n2)cc1 [IIIA-60]
6.00 to 7.00	Cc1onc(-c2ccccc2F)c1-c1ccnc(NC(=O)c2cccc(C#N)c2)n1 [IIIA-61]
6.00 to 7.00	COc1cc(C(=O)Nc2nccc(-c3c(-c4ccccc4F)noc3C)n2)cc(OC)c1OC [IIIA-62]
6.00 to 7.00	Cc1onc(-c2ccccc2F)c1-c1ccnc(NC(=O)c2ccc3ccccc3c2)n1 [IIIA-63]
6.00 to 7.00	Cc1onc(-c2c(F)cccc2F)c1-c1ccnc(NC(=O)c2cccc(Cl)c2)n1 [IIIA-64]
6.00 to 7.00	COc1cccc(C(=O)Nc2nccc(-c3c(-c4c(F)cccc4F)noc3C)n2)c1 [IIIA-65]
6.00 to 7.00	COc1cc(OC)cc(C(=O)Nc2nccc(-c3c(-c4c(F)cccc4F)noc3C)n2)c1 [IIIA-66]
6.00 to 7.00	Cc1cccc(C(=O)Nc2nccc(-c3c(-c4c(F)cccc4F)noc3C)n2)c1 [IIIA-67]

pKi	SMILES
6.00 to 7.00	COc1ccc(C(=O)Nc2nccc(-c3c(-c4c(F)cccc4F)noc3C)n2)cc1 [IIIA-68]
6.00 to 7.00	Cc1onc(-c2c(F)cccc2F)c1-c1ccnc(NC(=O)c2ccc(F)cc2)n1 [IIIA-69]
6.00 to 7.00	Cc1ccc(C(=O)Nc2nccc(-c3c(-c4c(F)cccc4F)noc3C)n2)cc1 [IIIA-70]
6.00 to 7.00	Cc1onc(-c2c(F)cccc2F)c1-c1ccnc(NC(=O)c2cccc(C#N)c2)n1 [IIIA-71]
6.00 to 7.00	COc1cc(C(=O)Nc2nccc(-c3c(-c4c(F)cccc4F)noc3C)n2)cc(OC)c1OC [IIIA-72]
6.00 to 7.00	Cc1onc(-c2c(F)cccc2F)c1-c1ccnc(NC(=O)c2ccc3ccccc3c2)n1 [IIIA-73]
> 7.00	Cc1onc(-c2ccccc2)c1-c1ccnc(NC(=O)c2cccc([N+](=O)[O-])c2)n1 [IIIA-74]
6.00 to 7.00	CC(=O)Nc1cccc(C(=O)Nc2nccc(-c3c(-c4ccccc4)noc3C)n2)c1 [IIIA-75]
6.00 to 7.00	CC(=O)Nc1nccc(-c2c(-c3ccccc3)noc2C)n1 [XA-1]
< 6.00	CC(=O)Nc1nccc(-c2c(-c3ccc(F)cc3)noc2C)n1 [XA-2]
6.00 to 7.00	Cc1onc(-c2ccccc2)c1-c1ccnc(NC(=O)C2CCCC2)n1 [XA-3]
6.00 to 7.00	Cc1onc(-c2ccccc2)c1-c1ccnc(NC(=O)CC(C)C)n1 [XA-4]
6.00 to 7.00	CCCC(=O)Nc1nccc(-c2c(-c3ccccc3)noc2C)n1 [XA-5]
> 7.00	OCc1onc(-c2ccc(F)cc2)c1-c1ccnc(NC2CCCCC2)n1 [XIA-45, [4-(2-Cyclohexylamino-pyrimidin-4-yl)-3-(4-fluoro-phenyl)-isoxazol-5-yl]methanol]
> 7.00	OCc1onc(-c2ccc(F)cc2)c1-c1ccnc(NCCc2ccccn2)n1 [XIA-46]
> 7.00	COCc1onc(-c2ccc(F)cc2)c1-c1ccnc(NC2CCCCC2)n1 [XIA-47]
> 7.00	CCOCc1onc(-c2ccc(F)cc2)c1-c1ccnc(NC2CCCCC2)n1 [XIA-48]
> 7.00	COCCOCc1onc(-c2ccc(F)cc2)c1-c1ccnc(NC2CCCCC2)n1 [XIA-49]
> 7.00	Fc1ccc(-c2noc(COC3CCOC3)c2-c2ccnc(NC3CCCCC3)n2)cc1 (centres unmarked) [XIA-50]
> 7.00	O=S1(=O)CCC(OCc2onc(-c3ccc(F)cc3)c2-c2ccnc(NC3CCCCC3)n2)C1 (centres unmarked) [XIA-51]
> 7.00	Fc1ccc(-c2noc(COCc3ccccc3)c2-c2ccnc(NC3CCCCC3)n2)cc1 [XIA-52]
> 7.00	Fc1ccc(-c2noc(COCc3ccccc3)c2-c2ccnc(NCCc3ccccn3)n2)cc1 [XIA-53]
